In patent US9790221B2, “Heteroaryl compounds as IRAK inhibitors and uses thereof” (Merck Patent GmbH, priority 2014, dated 2017):
pIC50: −log10 of the molar value. Structures can show the parent of a compound that is named as a salt.

Tests used:
IRAK4 = IRAK4 (Homo sapiens (Human), UniProt Q9NWZ3); assay: IRAK4 enzymatic assay; format: biochemical
Description: IRAK4 is a human purified recombinant enzyme ([…]. IRAK4 hydrolyses ATP, autophosphorylates and phosphorylates a Serine/Threonine generic peptidic substrate (STK: 61ST1BLC from CisBio International based in Bagnols/Cèze FR).
Measurement of IRAK-4 inhibition was performed in streptavidin coated 384well FlashPlate (PerkinElmer #SMP410A). His-TEV-IRAK4 (20 ng/well), ATP (2 μM, [^33P]ATP 0.25 µCi/well), STK1-biotin peptide (300 nM) and compounds in DMSO (range of concentrations from 20 µM to 1 nM) or controls (2% DMSO) were incubated for 3 hours at 30° C. in assay buffer: Hepes pH7.0 50 mM, Fatty acid-free BSA 0.1%, Dithiothreitol DTT 2 mM, MgCl2 10 mM, EGTA 0.5 mM, Tween-20 0.01%, MnCl2 5 mM.
Kinase reaction was stopped by addition of EDTA. Supernatant was discarded, plates were washed three times with 150 mM NaCl and radioactivity was then measured in a Microbeta Trilux reader.

[1] = biological target: IRAK1 (His-TEV-IRAK1 (194-712)) (Homo sapiens (Human), UniProt P51617); assay: IRAK1 enzymatic assay; format: biochemical
Description: IRAK1 is a human purified recombinant enzyme (His-TEV-IRAK1 (194-712)). In this assay, IRAK-1 hydrolyses ATP and autophosphorylates. Measurement of IRAK-1 inhibition was performed in streptavidin coated 384well FlashPlate (PerkinElmer #SMP410A).
His-TEV-IRAK-1 (15 ng/well), ATP (1 μM, [33P]ATP 0.25 μCi/well) and compounds in DMSO (range of concentrations from 20 µM to 1 nM) or controls (2% DMSO) were incubated for 3 hours at 30° C. in assay buffer: Hepes pH7.0 50 mM, Fatty acid-free BSA 0.1%, Dithiothreitol DTT 2 mM, MgCl2 10 mM, EGTA 0.5 mM, Triton-X-100 0.01%. Kinase reaction was stopped by addition of EDTA. Supernatant was discarded, plates were washed three times with 150 mM NaCl and radioactivity was then measured in a Microbeta Trilux reader.

Chain of IRAK4 (Q9NWZ3 whole entry): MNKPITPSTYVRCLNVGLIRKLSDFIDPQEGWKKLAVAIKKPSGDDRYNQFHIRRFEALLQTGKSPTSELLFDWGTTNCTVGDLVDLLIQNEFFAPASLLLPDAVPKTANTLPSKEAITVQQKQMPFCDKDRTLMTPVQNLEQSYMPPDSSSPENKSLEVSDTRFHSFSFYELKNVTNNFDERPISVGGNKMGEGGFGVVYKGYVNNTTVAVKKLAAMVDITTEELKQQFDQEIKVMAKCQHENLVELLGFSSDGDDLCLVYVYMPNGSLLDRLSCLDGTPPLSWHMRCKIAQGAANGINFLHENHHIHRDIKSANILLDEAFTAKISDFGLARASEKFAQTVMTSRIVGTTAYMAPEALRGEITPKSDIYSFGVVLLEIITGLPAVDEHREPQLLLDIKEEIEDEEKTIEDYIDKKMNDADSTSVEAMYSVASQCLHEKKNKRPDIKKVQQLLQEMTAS
Chain of IRAK1 (His-TEV-IRAK1 (194-712)) (P51617 194-712): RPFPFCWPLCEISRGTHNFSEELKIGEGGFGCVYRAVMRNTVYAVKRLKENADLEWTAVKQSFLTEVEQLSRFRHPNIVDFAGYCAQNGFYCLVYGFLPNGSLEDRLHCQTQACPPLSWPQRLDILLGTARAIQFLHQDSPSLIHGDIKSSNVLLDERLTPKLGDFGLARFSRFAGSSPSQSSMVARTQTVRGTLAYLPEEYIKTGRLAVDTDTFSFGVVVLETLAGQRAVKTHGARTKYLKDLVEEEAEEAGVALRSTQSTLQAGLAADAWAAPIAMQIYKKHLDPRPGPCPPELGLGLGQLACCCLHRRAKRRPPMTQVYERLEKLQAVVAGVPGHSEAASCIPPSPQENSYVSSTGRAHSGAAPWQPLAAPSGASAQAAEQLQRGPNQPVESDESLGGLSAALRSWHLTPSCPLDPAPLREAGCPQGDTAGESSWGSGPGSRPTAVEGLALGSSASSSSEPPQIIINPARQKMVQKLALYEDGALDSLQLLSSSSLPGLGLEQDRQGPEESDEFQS

pIC50 (IRAK4)	pIC50 [1]	SMILES
6.00 to 7.00	< 5.30	CC(=O)N[C@@H]1CCC[C@@H]1CNc1nc(-c2cccc(-c3cnn(C)c3)c2)ncc1-c1cnn(C)c1 (relative stereo) [Example 206, N-[(Cis)-2-({5-(1-Methyl-1H-pyrazol-4-yl)-2-[3-(1-methyl-1H-pyrazol-4-yl)-phenyl]-pyrimidin-4-ylamino}-methyl)-cyclopentyl]-acetamide]
6.00 to 7.00	< 5.30	Cn1cc(-c2cccc(-c3ncc(-c4cnn(C)c4)c(NCC4CNCCO4)n3)c2)cn1 (stereo not drawn) [Example 59]
6.00 to 7.00	5.30 to 6.00	CC(=O)N[C@H]1C[C@H](Nc2nc(-c3cccc(-c4cnn(C)c4)c3)ncc2-c2cnn(C)c2)C1 [Example 202]
6.00 to 7.00	5.30 to 6.00	Cn1cc(-c2cccc(-c3ncc(-c4cnn(C)c4)c(N4CC[C@@H](N)C4)n3)c2)cn1 [Example 241]
> 7.00	5.30 to 6.00	CC(=O)NCC1CCC(Nc2nc(-c3cccc(-c4cnn(C)c4)c3)ncc2-c2cnn(C)c2)CC1 (stereo not drawn) [Example 198]
5.30 to 6.00	< 5.30	Cn1cc(-c2cccc(-c3ncc(-c4cnn(C)c4)c(N[C@H]4CC[C@@H](N5CCOCC5)CC4)n3)c2)cn1 [Example 263]
6.00 to 7.00	< 5.30	CC(=O)NC[C@H]1C[C@H](Nc2nc(-c3cccc(-c4cnn(C)c4)c3)ncc2-c2cnn(C)c2)C1 [Example 212, N-(3-{5-(1-Methyl-1H-pyrazol-4-yl)-2-[3-(1-methyl-1H-pyrazol-4-yl)-phenyl]-pyrimidin-4-ylamino}-cyclobutylmethyl)-acetamide]
> 7.00	6.00 to 7.00	Cn1cc(-c2cccc(-c3ncc(-c4cnn(C)c4)c(NCC4CC4)n3)c2)cn1 [Example 157]
< 5.30	< 5.30	Cn1cc(-c2cccc(-c3ncc(-c4cnn(C)c4)c(NC4CC5CC4N(S(C)(=O)=O)C5)n3)c2)cn1 (stereo not drawn) [Example 189]
6.00 to 7.00	< 5.30	Cn1cc(-c2cccc(-c3ncc(-c4cnn(C)c4)c(N4CCNCC4)n3)c2)cn1 [Example 148]
5.30 to 6.00	< 5.30	Cn1cc(-c2cccc(-c3ncc(-c4cnn(C)c4)c(N4CCCC(CN)C4)n3)c2)cn1 (stereo not drawn) [Example 6, C-(1-{5-(1-Methyl-1H-pyrazol-4-yl)-2-[3-(1-methyl-1H-pyrazol-4-yl)-phenyl]-pyrimidin-4-yl}-piperidin-3-yl)-methylamine Hydrochoride]
6.00 to 7.00	< 5.30	Cn1cc(-c2cccc(-c3ncc(-c4cnn(C)c4)c(N4CC(O)C4)n3)c2)cn1 [Example 226]
6.00 to 7.00	< 5.30	Cn1cc(-c2cccc(-c3ncc(-c4cnn(C)c4)c(NC[C@@H]4CCC(=O)N4)n3)c2)cn1 [Example 61]
6.00 to 7.00	5.30 to 6.00	Cn1cc(-c2cccc(-c3ncc(-c4ccn(C)n4)c(NC4CC5(CC(N)C5)C4)n3)c2)cn1 (stereo not drawn) [Example 98]
6.00 to 7.00	5.30 to 6.00	Cn1cc(-c2cccc(-c3ncc(-c4cnn(C)c4)c(NC[C@H]4CCNC4)n3)c2)cn1 [Example 64]
6.00 to 7.00	< 5.30	Cn1cc(-c2cccc(-c3ncc(-c4cnn(C)c4)c(N4CC5CNCC5C4)n3)c2)cn1 (stereo not drawn) [Example 191]
> 7.00	5.30 to 6.00	Cn1cc(-c2cccc(-c3ncc(-c4cnn(C)c4)c(NC[C@@H]4CCCC[C@H]4O)n3)c2)cn1 [Example 224]
5.30 to 6.00	5.30 to 6.00	Cn1cc(-c2cccc(-c3ncc(-c4cnn(C)c4)c(NCC4CCCNC4)n3)c2)cn1 (stereo not drawn) [Example 4, {5-(1-Methyl-1H-pyrazol-4-yl)-2-[3-(1-methyl-1H-pyrazol-4-yl)-phenyl]-pyrimidin-4-yl}-piperidin-3-ylmethyl-amine Hydrochloride]
6.00 to 7.00	5.30 to 6.00	Cn1cc(-c2cccc(-c3ncc(-c4ccn(C)n4)c(NCC4CCNC(=O)C4)n3)c2)cn1 (stereo not drawn) [Example 74]
5.30 to 6.00	< 5.30	Cn1cc(-c2cccc(-c3ncc(-c4cnn(C)c4)c(NCCCN4CCCC4=O)n3)c2)cn1 [Example 40]
< 5.30	< 5.30	Cn1cc(-c2cccc(-c3ncc(-c4cnn(C)c4)c(NCC(=O)O)n3)c2)cn1 [Example 26, {5-(1-Methyl-1H-pyrazol-4-yl)-2-[3-(1-methyl-1H-pyrazol-4-yl)-phenyl]-pyrimidin-4-ylamino}-acetic Acid Formate]
> 7.00	< 5.30	Cn1cc(-c2cccc(-c3ncc(-c4cnn(C)c4)c(NC4CCC5CN(S(C)(=O)=O)CC54)n3)c2)cn1 (stereo not drawn) [Example 168]

pIC50 (IRAK4)	pIC50 [1]	SMILES
6.00 to 7.00	< 5.30	Cn1cc(-c2cccc(-c3ncc(-c4ccn(C)n4)c(N[C@H]4C[C@@H](N)C4)n3)c2)cn1 [Example 124]
6.00 to 7.00	6.00 to 7.00	Cn1cc(-c2cccc(-c3ncc(-c4cnn(C)c4)c(NC4CCC4)n3)c2)cn1 [Example 31]
> 7.00	< 5.30	Cn1cc(-c2cccc(-c3ncc(-c4cnn(C)c4)c(NC4C5CCCC4CC(NS(C)(=O)=O)C5)n3)c2)cn1 (stereo not drawn) [Example 159]
6.00 to 7.00	5.30 to 6.00	Cn1cc(-c2cccc(-c3ncc(-c4ccn(C)n4)c(NC4CCC4)n3)c2)cn1 [Example 27, Cyclobutyl-{5-(1-methyl-1H-pyrazol-3-yl)-2-[3-(1-methyl-1H-pyrazol-4-yl)-phenyl]-pyrimidin-4-yl}-amine]
6.00 to 7.00	5.30 to 6.00	Cn1cc(-c2cccc(-c3ncc(-c4ccn(C)n4)c(NCCO)n3)c2)cn1 [Example 100]
< 5.30	< 5.30	Cn1cc(-c2cccc(-c3ncc(-c4ccn(C)n4)c(NCC4(C)CCC4)n3)c2)cn1 [Example 71]
> 7.00	6.00 to 7.00	Cn1cc(-c2cccc(-c3ncc(-c4cnn(C)c4)c(NC4CC5(C4)CC(NS(C)(=O)=O)C5)n3)c2)cn1 (stereo not drawn) [Example 160]
6.00 to 7.00	< 5.30	Cn1cc(-c2cccc(-c3ncc(-c4ccn(C)n4)c(NC4CC(F)C4)n3)c2)cn1 (stereo not drawn) [Example 80]
5.30 to 6.00	6.00 to 7.00	Cn1cc(-c2cccc(-c3ncc(-c4ccn(C)n4)c(NCCN4CCCC4=O)n3)c2)cn1 [Example 70]
6.00 to 7.00	5.30 to 6.00	Cn1cc(-c2cccc(-c3ncc(-c4cnn(C)c4)c(NCCCN4CCOC4=O)n3)c2)cn1 [Example 78]
> 7.00	6.00 to 7.00	CC(=O)NC1CCC(Nc2nc(-c3cccc(-c4cnn(C)c4)c3)ncc2-c2nnc(C)s2)CC1 (stereo not drawn) [Example 205]
6.00 to 7.00	< 5.30	Cn1cc(-c2cccc(-c3ncc(-c4ccn(C)n4)c(NCCCN4CCOC4=O)n3)c2)cn1 [Example 67]
5.30 to 6.00	< 5.30	Cn1cc(-c2cccc(-c3ncc(-c4cnn(C)c4)c(NCCN4CCCC4=O)n3)c2)cn1 [Example 39]
6.00 to 7.00	< 5.30	Cn1cc(-c2cccc(-c3ncc(-c4ccn(C)n4)c(N[C@H]4CCNC4)n3)c2)cn1 [Example 117]
5.30 to 6.00	< 5.30	Cn1cc(-c2cccc(-c3ncc(-c4cnn(C)c4)c(N4CCC[C@H]4CO)n3)c2)cn1 [Example 230]
6.00 to 7.00	5.30 to 6.00	Cn1cc(-c2cccc(-c3ncc(-c4cnn(C)c4)c(NCC4(O)CCN(S(C)(=O)=O)CC4)n3)c2)cn1 [Example 249]
6.00 to 7.00	6.00 to 7.00	CN(CCC#N)c1nc(-c2cccc(-c3cnn(C)c3)c2)ncc1-c1cnn(C)c1 [Example 222]
6.00 to 7.00	< 5.30	Cn1cc(-c2cccc(-c3ncc(-c4cnn(C)c4)c(NCC4CCNCC4F)n3)c2)cn1 (stereo not drawn) [Example 229]
5.30 to 6.00	< 5.30	CN(CC1CC(F)(F)C1)c1nc(-c2cccc(-c3cnn(C)c3)c2)ncc1-c1ccn(C)n1 [Example 142]
5.30 to 6.00	< 5.30	Cc1cc(-c2cccc(-c3cnn(C)c3)c2)ncc1-c1cnn(C2CCOCC2)c1 [Example 24, 4-Methyl-2-[3-(1-methyl-1H-pyrazol-4-yl)-phenyl]-5-[1-(tetrahydro-pyran-4-yl)-1H-pyrazol-4-yl]-pyridine]
6.00 to 7.00	< 5.30	CC(=O)NCCCNc1nc(-c2cccc(-c3cnn(C)c3)c2)ncc1-c1cnn(C)c1 [Example 109]
> 7.00	5.30 to 6.00	Cn1cc(-c2cccc(-c3ncc(-c4cnn(C)c4)c(NC[C@H]4CC[C@@H](O)C4)n3)c2)cn1 (racemic) [Example 164]

SMILES	pIC50 (IRAK4)	pIC50 [1]
Cn1cc(-c2cccc(-c3ncc(-c4cnn(C)c4)c(NCC(N)=O)n3)c2)cn1 [Example 25, 2-{5-(1-Methyl-1H-pyrazol-4-yl)-2-[3-(1-methyl-1H-pyrazol-4-yl)-phenyl]-pyrimidin-4-ylamino}-acetamide formate]	5.30 to 6.00	< 5.30
